Results published in patent US20220009920A1 (GB005, Inc., priority 2020, published 2022).

How the values were obtained:
Experiment in all cases: Large panel kinase profiling
Type in all cases: biochemical
Details in all cases: 1 μM test article, 1 mM ATP
[1] = molecular target: T1, BTK (Homo sapiens, UniProt Q06187)
T1 construct: purchased Cama
Outline: (§1)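 At 30° C., kinases turned over a CSox-Sensor peptide substrate with 1 mM ATP while 1 μM test article was present. Progress was followed by kinetic fluorescence readings.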

[2] = molecular target: T2, DAPK1 (Homo sapiens, UniProt P53355)
T2 construct: AssayQuant Technologies, Inc. (service laboratory)
Outline: as §1

[3] = molecular target: T3, DYRK2 (Homo sapiens, UniProt Q92630)
T3 construct: AssayQuant Technologies, Inc. (service laboratory)
T3 sequence (Q92630 1-601): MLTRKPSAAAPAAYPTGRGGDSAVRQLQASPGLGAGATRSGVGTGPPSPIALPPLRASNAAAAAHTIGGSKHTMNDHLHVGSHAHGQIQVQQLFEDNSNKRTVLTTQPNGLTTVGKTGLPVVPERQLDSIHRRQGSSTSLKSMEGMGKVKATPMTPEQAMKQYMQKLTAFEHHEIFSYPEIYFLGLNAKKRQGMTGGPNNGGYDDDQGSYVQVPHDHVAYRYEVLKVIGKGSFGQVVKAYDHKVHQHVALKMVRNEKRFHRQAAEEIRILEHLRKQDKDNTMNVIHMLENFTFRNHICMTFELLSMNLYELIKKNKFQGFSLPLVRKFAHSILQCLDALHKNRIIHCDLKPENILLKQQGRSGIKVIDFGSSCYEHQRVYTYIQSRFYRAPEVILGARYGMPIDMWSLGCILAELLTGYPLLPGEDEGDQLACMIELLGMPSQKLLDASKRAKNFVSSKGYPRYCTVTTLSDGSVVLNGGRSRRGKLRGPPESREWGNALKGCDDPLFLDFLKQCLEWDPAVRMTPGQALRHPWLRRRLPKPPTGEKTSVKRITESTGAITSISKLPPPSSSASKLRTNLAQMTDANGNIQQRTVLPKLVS
Outline: as §1

[4] = molecular target: T4, FYNA (Homo sapiens, UniProt P06241)
T4 construct: AssayQuant Technologies, Inc. (service provider)
T4 sequence (P06241 whole entry): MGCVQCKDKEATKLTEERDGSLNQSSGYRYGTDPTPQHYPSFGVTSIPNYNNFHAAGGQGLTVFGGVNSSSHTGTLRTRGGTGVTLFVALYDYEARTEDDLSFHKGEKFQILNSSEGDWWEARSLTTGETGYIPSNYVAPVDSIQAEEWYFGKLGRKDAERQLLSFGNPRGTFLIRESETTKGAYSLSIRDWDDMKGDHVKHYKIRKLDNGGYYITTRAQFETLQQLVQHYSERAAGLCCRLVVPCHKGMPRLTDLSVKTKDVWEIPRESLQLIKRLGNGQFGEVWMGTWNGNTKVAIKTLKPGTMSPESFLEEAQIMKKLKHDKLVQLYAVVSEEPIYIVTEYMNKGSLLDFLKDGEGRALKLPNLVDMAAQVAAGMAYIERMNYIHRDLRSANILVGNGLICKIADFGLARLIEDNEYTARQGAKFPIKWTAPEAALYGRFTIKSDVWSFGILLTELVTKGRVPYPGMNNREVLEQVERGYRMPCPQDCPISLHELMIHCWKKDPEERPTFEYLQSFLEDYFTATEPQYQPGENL
Outline: as §1

[5] = molecular target: T5, HIPK3 (Homo sapiens, UniProt Q9H422)
T5 construct: AssayQuant Technologies, Inc. (service provider)
T5 sequence (Q9H422 whole entry, species assumed): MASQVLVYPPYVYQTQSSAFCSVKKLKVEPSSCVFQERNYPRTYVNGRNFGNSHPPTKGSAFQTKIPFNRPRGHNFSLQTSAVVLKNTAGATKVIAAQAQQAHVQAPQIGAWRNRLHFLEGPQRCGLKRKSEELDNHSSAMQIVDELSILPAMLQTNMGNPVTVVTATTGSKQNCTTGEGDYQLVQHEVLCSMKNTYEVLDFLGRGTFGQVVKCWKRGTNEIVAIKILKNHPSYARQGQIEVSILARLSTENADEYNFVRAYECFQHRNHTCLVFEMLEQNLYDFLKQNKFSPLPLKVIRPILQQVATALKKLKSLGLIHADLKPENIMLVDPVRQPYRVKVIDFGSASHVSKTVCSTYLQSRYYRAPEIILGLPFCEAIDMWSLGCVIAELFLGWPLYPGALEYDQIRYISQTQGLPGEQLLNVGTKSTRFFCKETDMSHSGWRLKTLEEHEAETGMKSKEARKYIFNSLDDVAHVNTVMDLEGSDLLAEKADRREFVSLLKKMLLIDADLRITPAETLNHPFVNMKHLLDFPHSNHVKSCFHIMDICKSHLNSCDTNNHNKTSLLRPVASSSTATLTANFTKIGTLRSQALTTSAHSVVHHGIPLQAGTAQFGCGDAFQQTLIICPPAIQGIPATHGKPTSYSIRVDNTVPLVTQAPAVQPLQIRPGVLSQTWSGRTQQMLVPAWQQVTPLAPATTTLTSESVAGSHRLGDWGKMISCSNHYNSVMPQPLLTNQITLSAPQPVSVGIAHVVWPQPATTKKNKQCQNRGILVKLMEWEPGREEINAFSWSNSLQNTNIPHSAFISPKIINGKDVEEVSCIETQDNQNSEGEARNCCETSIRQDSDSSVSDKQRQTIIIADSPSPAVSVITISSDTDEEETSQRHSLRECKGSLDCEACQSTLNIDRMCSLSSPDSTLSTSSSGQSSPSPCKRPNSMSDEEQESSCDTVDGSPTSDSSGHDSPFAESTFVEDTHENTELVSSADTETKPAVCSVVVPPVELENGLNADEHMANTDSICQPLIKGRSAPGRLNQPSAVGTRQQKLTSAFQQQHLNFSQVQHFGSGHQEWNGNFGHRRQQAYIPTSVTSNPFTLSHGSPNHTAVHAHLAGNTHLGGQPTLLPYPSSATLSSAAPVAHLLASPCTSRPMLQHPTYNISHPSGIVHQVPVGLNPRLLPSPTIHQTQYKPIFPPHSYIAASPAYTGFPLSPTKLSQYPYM
Outline: as §1

[6] = molecular target: T6, JAK2(JH1JH2) (Homo sapiens, UniProt O60674)
T6 construct: JAK2(JH1JH2)
T6 sequence (O60674 532-1132 limits assumed, species assumed): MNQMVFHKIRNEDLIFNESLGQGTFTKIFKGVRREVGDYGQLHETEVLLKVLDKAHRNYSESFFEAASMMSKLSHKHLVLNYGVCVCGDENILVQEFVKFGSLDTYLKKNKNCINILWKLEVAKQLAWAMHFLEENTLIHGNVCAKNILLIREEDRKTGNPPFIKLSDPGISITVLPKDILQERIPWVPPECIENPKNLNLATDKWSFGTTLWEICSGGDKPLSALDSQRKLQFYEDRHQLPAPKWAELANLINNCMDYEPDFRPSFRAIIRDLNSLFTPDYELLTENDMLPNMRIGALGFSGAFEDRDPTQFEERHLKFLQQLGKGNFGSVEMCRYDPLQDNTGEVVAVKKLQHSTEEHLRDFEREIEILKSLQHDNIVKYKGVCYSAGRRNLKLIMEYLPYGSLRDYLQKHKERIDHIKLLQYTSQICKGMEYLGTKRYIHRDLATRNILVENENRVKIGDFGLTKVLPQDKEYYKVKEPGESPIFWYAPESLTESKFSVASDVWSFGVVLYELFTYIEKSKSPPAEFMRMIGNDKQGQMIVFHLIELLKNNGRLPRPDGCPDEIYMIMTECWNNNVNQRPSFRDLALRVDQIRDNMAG
Outline: as §1

[7] = molecular target: T7, NEK1 (Homo sapiens, UniProt Q96PY6)
T7 construct: AssayQuant Technologies, Inc. (assay service)
T7 sequence (Q96PY6 1-1258): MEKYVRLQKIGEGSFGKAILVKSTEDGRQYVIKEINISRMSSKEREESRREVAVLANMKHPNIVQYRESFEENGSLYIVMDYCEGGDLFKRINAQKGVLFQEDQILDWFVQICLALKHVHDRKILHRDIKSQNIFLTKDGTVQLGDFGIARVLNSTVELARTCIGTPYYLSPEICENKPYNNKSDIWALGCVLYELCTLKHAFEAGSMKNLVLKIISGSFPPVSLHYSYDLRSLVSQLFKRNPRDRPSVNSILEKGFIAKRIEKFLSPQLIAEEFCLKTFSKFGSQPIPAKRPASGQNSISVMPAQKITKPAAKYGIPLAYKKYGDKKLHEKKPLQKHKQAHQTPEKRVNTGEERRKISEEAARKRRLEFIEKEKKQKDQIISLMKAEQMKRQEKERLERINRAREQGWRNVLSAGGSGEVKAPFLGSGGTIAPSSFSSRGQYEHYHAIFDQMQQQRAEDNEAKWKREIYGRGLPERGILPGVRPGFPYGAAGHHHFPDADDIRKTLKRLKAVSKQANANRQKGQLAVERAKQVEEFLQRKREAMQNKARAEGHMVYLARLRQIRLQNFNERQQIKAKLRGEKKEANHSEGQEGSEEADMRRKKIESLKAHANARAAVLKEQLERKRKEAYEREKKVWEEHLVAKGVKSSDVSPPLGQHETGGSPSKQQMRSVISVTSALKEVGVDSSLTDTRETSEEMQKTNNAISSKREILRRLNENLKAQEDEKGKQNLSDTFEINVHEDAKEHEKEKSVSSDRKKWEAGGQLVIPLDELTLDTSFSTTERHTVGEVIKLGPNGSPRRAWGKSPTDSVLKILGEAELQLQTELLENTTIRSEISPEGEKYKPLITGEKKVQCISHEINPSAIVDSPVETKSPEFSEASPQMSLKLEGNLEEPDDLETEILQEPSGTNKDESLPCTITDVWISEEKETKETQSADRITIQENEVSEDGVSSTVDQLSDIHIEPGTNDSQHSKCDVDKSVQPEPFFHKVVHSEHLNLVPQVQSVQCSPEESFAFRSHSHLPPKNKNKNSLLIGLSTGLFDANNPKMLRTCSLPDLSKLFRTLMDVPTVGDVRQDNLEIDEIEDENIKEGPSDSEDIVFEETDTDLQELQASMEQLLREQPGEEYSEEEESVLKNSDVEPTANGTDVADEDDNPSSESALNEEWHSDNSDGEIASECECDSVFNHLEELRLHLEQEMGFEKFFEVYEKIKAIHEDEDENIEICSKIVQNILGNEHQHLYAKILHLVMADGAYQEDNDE
Outline: as §1

[8] = molecular target: PIM3 (Homo sapiens, UniProt Q86V86)
Outline: as §1

[9] = molecular target: PKN1 (Homo sapiens, UniProt Q16512)
Outline: as §1

[10] = molecular target: PLK1 (Homo sapiens, UniProt P53350)
Outline: as §1

[11] = molecular target: PRKCA/PKCA (Homo sapiens, UniProt P17252)
Outline: as §1

[12] = molecular target: PRKCD/CPKCD (Homo sapiens, UniProt Q05655)
Sequence of PRKCD/CPKCD (Q05655 whole entry): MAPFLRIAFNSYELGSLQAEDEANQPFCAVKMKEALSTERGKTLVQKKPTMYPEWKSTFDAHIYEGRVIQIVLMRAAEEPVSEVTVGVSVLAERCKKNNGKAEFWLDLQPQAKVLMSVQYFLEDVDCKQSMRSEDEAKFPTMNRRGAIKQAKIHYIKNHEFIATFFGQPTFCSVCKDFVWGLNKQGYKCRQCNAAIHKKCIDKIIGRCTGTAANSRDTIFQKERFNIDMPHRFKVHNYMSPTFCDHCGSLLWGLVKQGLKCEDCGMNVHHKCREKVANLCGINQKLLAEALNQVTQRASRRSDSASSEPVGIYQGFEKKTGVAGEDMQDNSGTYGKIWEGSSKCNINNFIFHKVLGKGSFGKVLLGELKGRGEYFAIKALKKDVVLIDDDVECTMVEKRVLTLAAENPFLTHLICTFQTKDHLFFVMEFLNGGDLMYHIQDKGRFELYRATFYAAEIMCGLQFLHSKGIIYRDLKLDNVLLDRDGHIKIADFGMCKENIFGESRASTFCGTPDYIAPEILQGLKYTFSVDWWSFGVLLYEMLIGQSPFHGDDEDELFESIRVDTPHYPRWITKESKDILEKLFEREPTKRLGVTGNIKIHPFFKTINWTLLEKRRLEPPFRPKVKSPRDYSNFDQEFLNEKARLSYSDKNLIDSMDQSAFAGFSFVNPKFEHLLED
Outline: as §1

T1 sequence (Q06187 whole entry): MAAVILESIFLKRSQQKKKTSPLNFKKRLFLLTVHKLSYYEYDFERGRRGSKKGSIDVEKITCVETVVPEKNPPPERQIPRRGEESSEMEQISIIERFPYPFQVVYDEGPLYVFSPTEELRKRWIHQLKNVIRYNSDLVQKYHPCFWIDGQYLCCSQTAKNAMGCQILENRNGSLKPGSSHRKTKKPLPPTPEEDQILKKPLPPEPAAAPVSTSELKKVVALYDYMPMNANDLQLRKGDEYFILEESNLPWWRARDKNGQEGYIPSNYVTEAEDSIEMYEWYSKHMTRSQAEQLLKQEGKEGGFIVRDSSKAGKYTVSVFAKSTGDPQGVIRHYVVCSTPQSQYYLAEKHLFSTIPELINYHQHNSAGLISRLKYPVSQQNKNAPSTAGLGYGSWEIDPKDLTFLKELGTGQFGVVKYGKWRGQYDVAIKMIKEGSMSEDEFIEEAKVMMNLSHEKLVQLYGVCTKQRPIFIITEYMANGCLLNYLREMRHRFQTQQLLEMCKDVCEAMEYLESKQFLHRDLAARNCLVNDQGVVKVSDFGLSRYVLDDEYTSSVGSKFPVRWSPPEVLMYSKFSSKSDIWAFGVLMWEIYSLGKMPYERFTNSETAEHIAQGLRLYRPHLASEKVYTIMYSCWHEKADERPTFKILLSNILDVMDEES

Structure (SMILES)	inhibition at 1 µM [1] [%]	inhibition at 1 µM [2] [%]	inhibition at 1 µM [3] [%]	inhibition at 1 µM [4] [%]	inhibition at 1 µM [5] [%]	inhibition at 1 µM [6] [%]	inhibition at 1 µM [7] [%]	inhibition at 1 µM [8] [%]	inhibition at 1 µM [9] [%]	inhibition at 1 µM [10] [%]	inhibition at 1 µM [11] [%]	inhibition at 1 µM [12] [%]
C=CC(=O)N1CCCC(c2c(F)cc(C(N)=O)c3[nH]c4c(c23)CCCCC4)C1 (single isomer, unassigned) [Compound 5-6]	92.8	8.1	6.1	12	-11.2	1	-3.1	-14.1	5.2	-6.3	2.3	-42.2
C=CC(=O)N1CCC[C@@H](c2c(F)cc(C(N)=O)c3[nH]c4c(c23)CC2(CC4)CC2)C1 [Compound 6-2, (S)-5-(1-acryloylpiperidin-3-yl)-6-fluoro-1,2,4,9-tetrahydrospiro[carbazole-3,1′-cyclopropane]-8-carboxamide]	97.4	22.1	13.3	-5.2	30.6	-9.4	7.9	-56.4	-10.2	-4.3	14.7	-0.1
C=CC(=O)N1CCC[C@@H](c2c(F)cc(C(N)=O)c3[nH]c4c(c23)CCC4)C1 [Compound 10-2, (S)-8-(1-acryloylpiperidin-3-yl)-7-fluoro-1,2,3,4-tetrahydrocyclo-penta[b]indole-5-carboxamide]	93.8	-20.3	0.3	-24.6	34.7	-9.8	11.8	-16.8	12	13.8	-3.5	-0.6
